Results: patent US20250059198A1, “BRM DEGRADING COMPOUNDS AND ASSOCIATED METHODS OF USE” (Arvinas Operations, Inc., priority 2021, published 2025)

Molecular target: T1, BRM (Homo sapiens, UniProt P51531)
T1 construct: Western Blot Screen of BRM Degradation in SW1573 Cells; endogenous in cells; host or cells: SW1573 cells
Assay: BRM degradation (Dmax and DC50) in SW1573 cells, Western blot screen / In-Cell Western screen
Format: cell-based
Details: overnight (18-20 hours) treatment; for Dmax: read-out: Dmax (%)** (% degraded)
Procedure, shortened: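 SW1573 cells were treated with compound for 18–20 h (final 0.1% DMSO). BRM was quantified either by Western blot of RIPA lysates or by fixed-cell In-Cell Western (LI-COR, 800/680 nm), each normalised to alpha-tubulin, giving Dmax and DC50.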

T1 sequence (P51531 whole entry): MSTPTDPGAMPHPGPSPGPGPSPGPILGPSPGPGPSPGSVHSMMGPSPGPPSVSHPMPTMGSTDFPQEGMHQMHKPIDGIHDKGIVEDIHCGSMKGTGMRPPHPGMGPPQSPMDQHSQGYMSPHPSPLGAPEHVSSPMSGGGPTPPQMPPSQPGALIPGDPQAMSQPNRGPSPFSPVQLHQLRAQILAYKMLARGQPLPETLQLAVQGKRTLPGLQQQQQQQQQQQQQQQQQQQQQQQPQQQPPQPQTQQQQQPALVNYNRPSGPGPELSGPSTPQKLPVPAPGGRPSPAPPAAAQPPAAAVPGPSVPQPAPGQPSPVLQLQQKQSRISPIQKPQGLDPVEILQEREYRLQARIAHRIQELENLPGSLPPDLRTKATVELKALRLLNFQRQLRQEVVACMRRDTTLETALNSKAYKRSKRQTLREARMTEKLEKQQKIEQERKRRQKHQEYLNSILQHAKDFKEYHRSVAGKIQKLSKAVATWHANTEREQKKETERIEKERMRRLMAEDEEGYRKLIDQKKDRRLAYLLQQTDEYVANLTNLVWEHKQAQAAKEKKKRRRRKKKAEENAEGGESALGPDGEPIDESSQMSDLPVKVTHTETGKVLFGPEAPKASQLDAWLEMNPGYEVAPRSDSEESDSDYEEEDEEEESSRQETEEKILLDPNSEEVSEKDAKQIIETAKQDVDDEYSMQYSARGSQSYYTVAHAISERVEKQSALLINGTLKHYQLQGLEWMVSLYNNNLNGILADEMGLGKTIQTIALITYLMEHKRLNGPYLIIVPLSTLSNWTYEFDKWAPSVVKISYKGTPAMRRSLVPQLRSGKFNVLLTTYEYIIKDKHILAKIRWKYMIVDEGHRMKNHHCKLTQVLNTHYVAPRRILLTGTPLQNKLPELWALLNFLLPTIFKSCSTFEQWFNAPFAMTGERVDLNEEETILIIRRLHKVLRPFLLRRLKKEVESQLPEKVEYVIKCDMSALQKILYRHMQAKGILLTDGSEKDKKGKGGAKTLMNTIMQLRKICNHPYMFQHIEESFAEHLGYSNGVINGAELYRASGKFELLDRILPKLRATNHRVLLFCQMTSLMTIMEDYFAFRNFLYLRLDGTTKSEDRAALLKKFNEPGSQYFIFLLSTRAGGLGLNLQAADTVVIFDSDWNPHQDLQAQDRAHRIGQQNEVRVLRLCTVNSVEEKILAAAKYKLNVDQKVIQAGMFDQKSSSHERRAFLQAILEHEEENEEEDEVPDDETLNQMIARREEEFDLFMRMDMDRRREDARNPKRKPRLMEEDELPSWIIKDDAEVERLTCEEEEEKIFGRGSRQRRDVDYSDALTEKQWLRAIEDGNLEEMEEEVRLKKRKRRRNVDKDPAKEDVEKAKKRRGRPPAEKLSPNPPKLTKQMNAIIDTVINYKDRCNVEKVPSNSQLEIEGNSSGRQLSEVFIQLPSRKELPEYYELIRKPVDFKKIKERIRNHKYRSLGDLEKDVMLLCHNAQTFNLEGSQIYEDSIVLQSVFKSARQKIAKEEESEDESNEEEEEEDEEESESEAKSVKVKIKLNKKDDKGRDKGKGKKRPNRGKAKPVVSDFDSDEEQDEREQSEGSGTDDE

Compound	DC50 [nM]	Dmax [%]
CC(C)[C@H](C(=O)N1C[C@H](O)C[C@H]1C(=O)N[C@@H](C)c1ccc(C#N)cc1)c1cc(O[C@H]2C[C@H](C(C)(C)N3CCC(O[C@H]4C[C@H](Oc5cc(N6C7CCC6CN(c6cc(-c8ccccc8O)nnc6N)C7)ccn5)C4)CC3)C2)no1 [Compound 93, (2S,4R)-N-[(1S)-1-(4-cyanophenyl)ethyl]-4-hydroxy-1-[(2S)-3-methyl-2-{3-[(1r,3r)-3-(2-{4-[(1r,3r)-3-[(4-{3-[3-amino-6-(2-hydroxyphenyl)pyridazin-4-yl]-3,8-diazabicyclo[3.2.1]octan-8-yl}pyridin-2-yl)oxy]cyclobutoxy]piperidin-1-yl}propan-2-yl)cyclobutoxy]-1,2-oxazol-5-yl}butanoyl]pyrrolidine-2-carboxamide]	≥ 30	
Cc1ncsc1-c1ccc([C@H](C)NC(=O)[C@@H]2C[C@@H](O)CN2C(=O)[C@@H](c2cc(N3CCC(CN4CCC5(CC4)CC(N4CCO[C@H](C(C)(C)N6C7CCC6CN(c6cc(-c8ccccc8O)nnc6N)C7)C4)C5)CC3)no2)C(C)C)cc1 [Compound 94, (2S,4R)-1-[(2R)-2-{3-[4-({2-[(2S)-2-(2-{3-[3-amino-6-(2-hydroxyphenyl)pyridazin-4-yl]-3,8-diazabicyclo[3.2.1]octan-8-yl}propan-2-yl)morpholin-4-yl]-7-azaspiro[3.5]nonan-7-yl}methyl)piperidin-1-yl]-1,2-oxazol-5-yl}-3-methylbutanoyl]-4-hydroxy-N-[(1S)-1-[4-(4-methyl-1,3-thiazol-5-yl)phenyl]ethyl]pyrrolidine-2-carboxamide]	2.5 to 10	> 75
Cc1ncsc1-c1ccc([C@H](C)NC(=O)[C@@H]2C[C@@H](O)CN2C(=O)[C@@H](c2cc(N3CCC(CN4CCC5(CC4)CC(N4CCO[C@@H](C(C)(C)N6C7CCC6CN(c6cc(-c8ccccc8O)nnc6N)C7)C4)C5)CC3)no2)C(C)C)cc1 [Compound 95, (2S,4R)-1-[(2R)-2-{3-[4-({2-[(2R)-2-(2-{3-[3-amino-6-(2-hydroxyphenyl)pyridazin-4-yl]-3,8-diazabicyclo[3.2.1]octan-8-yl}propan-2-yl)morpholin-4-yl]-7-azaspiro[3.5]nonan-7-yl}methyl)piperidin-1-yl]-1,2-oxazol-5-yl}-3-methylbutanoyl]-4-hydroxy-N-[(1S)-1-[4-(4-methyl-1,3-thiazol-5-yl)phenyl]ethyl]pyrrolidine-2-carboxamide]	2.5 to 10	> 75
Cc1ncsc1-c1ccc([C@H](C)NC(=O)[C@@H]2C[C@@H](O)CN2C(=O)[C@@H](c2cc(N3CCC(CN4CCC5(CC4)CC(N4CCO[C@H]([C@H](C)n6cc(C#Cc7cc(-c8ccccc8O)nnc7N)cn6)C4)C5)CC3)no2)C(C)C)cc1 [Compound 96, (2S,4R)-1-[(2R)-2-{3-[4-({2-[(2S)-2-[(1S)-1-(4-{2-[3-amino-6-(2-hydroxyphenyl)pyridazin-4-yl]ethynyl}-1H-pyrazol-1-yl)ethyl]morpholin-4-yl]-7-azaspiro[3.5]nonan-7-yl}methyl)piperidin-1-yl]-1,2-oxazol-5-yl}-3-methylbutanoyl]-4-hydroxy-N-[(1S)-1-[4-(4-methyl-1,3-thiazol-5-yl)phenyl]ethyl]pyrrolidine-2-carboxamide]	< 2.5	> 75
Cc1ncsc1-c1ccc([C@H](C)NC(=O)[C@@H]2C[C@@H](O)CN2C(=O)[C@@H](c2cc(N3CCC(CN4CCC5(CC4)CC(N4CCO[C@@H]([C@H](C)n6cc(C#Cc7cc(-c8ccccc8O)nnc7N)cn6)C4)C5)CC3)no2)C(C)C)cc1 [Compound 97, (2S,4R)-1-[(2R)-2-{3-[4-({2-[(2R)-2-[(1S)-1-(4-{2-[3-amino-6-(2-hydroxyphenyl)pyridazin-4-yl]ethynyl}-1H-pyrazol-1-yl)ethyl]morpholin-4-yl]-7-azaspiro[3.5]nonan-7-yl}methyl)piperidin-1-yl]-1,2-oxazol-5-yl}-3-methylbutanoyl]-4-hydroxy-N-[(1S)-1-[4-(4-methyl-1,3-thiazol-5-yl)phenyl]ethyl]pyrrolidine-2-carboxamide]	< 2.5	> 75
Cc1ncsc1-c1ccc([C@H](C)NC(=O)[C@@H]2C[C@@H](O)CN2C(=O)[C@@H](c2cc(N3CCC(CN4CCC5(CC4)CC(N4CCO[C@H]([C@@H](C)n6cc(C#Cc7cc(-c8ccccc8O)nnc7N)cn6)C4)C5)CC3)no2)C(C)C)cc1 [Compound 98, (2S,4R)-1-[(2R)-2-{3-[4-({2-[(2S)-2-[(1R)-1-(4-{2-[3-amino-6-(2-hydroxyphenyl)pyridazin-4-yl]ethynyl}-1H-pyrazol-1-yl)ethyl]morpholin-4-yl]-7-azaspiro[3.5]nonan-7-yl}methyl)piperidin-1-yl]-1,2-oxazol-5-yl}-3-methylbutanoyl]-4-hydroxy-N-[(1S)-1-[4-(4-methyl-1,3-thiazol-5-yl)phenyl]ethyl]pyrrolidine-2-carboxamide]	< 2.5	> 75
Cc1ncsc1-c1ccc([C@H](C)NC(=O)[C@@H]2C[C@@H](O)CN2C(=O)[C@@H](c2cc(N3CCC(CN4CCC5(CC4)CC(N4CCO[C@@H]([C@@H](C)n6cc(C#Cc7cc(-c8ccccc8O)nnc7N)cn6)C4)C5)CC3)no2)C(C)C)cc1 [Compound 99, (2S,4R)-1-[(2R)-2-{3-[4-({2-[(2R)-2-[(1R)-1-(4-{2-[3-amino-6-(2-hydroxyphenyl)pyridazin-4-yl]ethynyl}-1H-pyrazol-1-yl)ethyl]morpholin-4-yl]-7-azaspiro[3.5]nonan-7-yl}methyl)piperidin-1-yl]-1,2-oxazol-5-yl}-3-methylbutanoyl]-4-hydroxy-N-[(1S)-1-[4-(4-methyl-1,3-thiazol-5-yl)phenyl]ethyl]pyrrolidine-2-carboxamide]	< 2.5	> 75
Cc1ncsc1-c1ccc([C@H](C)NC(=O)[C@@H]2C[C@@H](O)CN2C(=O)[C@@H](c2cc(N3CCC(CN4CCC(O[C@H]5C[C@H](N6CCC(C(C)n7ncc(-c8cc(-c9ccccc9O)nnc8N)c7F)CC6)C5)CC4)CC3)no2)C(C)C)cc1 (stereo partly drawn) [Compound 100, (2S,4R)-4-hydroxy-N-[(1S)-1-[4-(4-methyl-1,3-thiazol-5-yl)phenyl]ethyl]-1-[(2R)-3-methyl-2-{3-[4-({4-[(1r,3r)-3-[4-(1-{4-[3-amino-6-(2-hydroxyphenyl)pyridazin-4-yl]-5-fluoro-1H-pyrazol-1-yl}ethyl)piperidin-1-yl]cyclobutoxy]piperidin-1-yl}methyl)piperidin-1-yl]-1,2-oxazol-5-yl}butanoyl]pyrrolidine-2-carboxamide]	< 2.5	> 75
Cc1ncsc1-c1ccc([C@H](C)NC(=O)[C@@H]2C[C@@H](O)CN2C(=O)[C@@H](c2cc(N3CCC(CN4CC[C@@H](OC(=O)N5CCN(c6cc(-c7ccccc7O)nnc6N)CC5)[C@@H](F)C4)CC3)no2)C(C)C)cc1 [Compound 101, (3S,4R)-3-fluoro-1-[(1-{5-[(2R)-1-[(2S,4R)-4-hydroxy-2-{[(1S)-1-[4-(4-methyl-1,3-thiazol-5-yl)phenyl]ethyl]carbamoyl}pyrrolidin-1-yl]-3-methyl-1-oxobutan-2-yl]-1,2-oxazol-3-yl}piperidin-4-yl)methyl]piperidin-4-yl 4-[3-amino-6-(2-hydroxyphenyl)pyridazin-4-yl]piperazine-1-carboxylate]	< 2.5	> 75
Cc1ncsc1-c1ccc([C@H](C)NC(=O)[C@@H]2C[C@@H](O)CN2C(=O)[C@@H](c2cc(N3CCC(CN4CC[C@@H](OC(=O)N5CCN(c6cc(-c7ccccc7O)nnc6N)CC5)[C@H](F)C4)CC3)no2)C(C)C)cc1 [Compound 102, (3R,4R)-3-fluoro-1-[(1-{5-[(2R)-1-[(2S,4R)-4-hydroxy-2-{[(1S)-1-[4-(4-methyl-1,3-thiazol-5-yl)phenyl]ethyl]carbamoyl}pyrrolidin-1-yl]-3-methyl-1-oxobutan-2-yl]-1,2-oxazol-3-yl}piperidin-4-yl)methyl]piperidin-4-yl 4-[3-amino-6-(2-hydroxyphenyl)pyridazin-4-yl]piperazine-1-carboxylate]	2.5 to 10	> 75
Cc1ncsc1-c1ccc([C@H](C)NC(=O)[C@@H]2C[C@@H](O)CN2C(=O)[C@@H](c2cc(N3CCC(CN4CC[C@H](OC(=O)N5CCN(c6cc(-c7ccccc7O)nnc6N)CC5)[C@H](F)C4)CC3)no2)C(C)C)cc1 [Compound 103, (3R,4S)-3-fluoro-1-[(1-{5-[(2R)-1-[(2S,4R)-4-hydroxy-2-{[(1S)-1-[4-(4-methyl-1,3-thiazol-5-yl)phenyl]ethyl]carbamoyl}pyrrolidin-1-yl]-3-methyl-1-oxobutan-2-yl]-1,2-oxazol-3-yl}piperidin-4-yl)methyl]piperidin-4-yl 4-[3-amino-6-(2-hydroxyphenyl)pyridazin-4-yl]piperazine-1-carboxylate]	< 2.5	> 75
Cc1ncsc1-c1ccc([C@H](C)NC(=O)[C@@H]2C[C@@H](O)CN2C(=O)[C@@H](c2cc(N3CCC(CN4CC[C@H](OC(=O)N5CCN(c6cc(-c7ccccc7O)nnc6N)CC5)[C@@H](F)C4)CC3)no2)C(C)C)cc1 [Compound 104, (3S,4S)-3-fluoro-1-[(1-{5-[(2R)-1-[(2S,4R)-4-hydroxy-2-{[(1S)-1-[4-(4-methyl-1,3-thiazol-5-yl)phenyl]ethyl]carbamoyl}pyrrolidin-1-yl]-3-methyl-1-oxobutan-2-yl]-1,2-oxazol-3-yl}piperidin-4-yl)methyl]piperidin-4-yl 4-[3-amino-6-(2-hydroxyphenyl)pyridazin-4-yl]piperazine-1-carboxylate]	< 2.5	> 75
Cc1ncsc1-c1ccc([C@H](C)NC(=O)[C@@H]2C[C@@H](O)CN2C(=O)[C@@H](c2cc(N3CCC(CN4CCC(O[C@H]5C[C@H](N6CCC(Cc7cnn(-c8cc(-c9ccccc9O)nnc8N)c7)CC6)C5)CC4)CC3)no2)C(C)C)cc1 [Compound 105, (2S,4R)-4-hydroxy-N-[(1S)-1-[4-(4-methyl-1,3-thiazol-5-yl)phenyl]ethyl]-1-[(2R)-3-methyl-2-{3-[4-({4-[(1r,3r)-3-[4-({1-[3-amino-6-(2-hydroxyphenyl)pyridazin-4-yl]-1H-pyrazol-4-yl}methyl)piperidin-1-yl]cyclobutoxy]piperidin-1-yl}methyl)piperidin-1-yl]-1,2-oxazol-5-yl}butanoyl]pyrrolidine-2-carboxamide]	< 2.5	> 75
